Test system: skin of fuzzy rats
Assay: Topical skin irritation test
Format: in vivo, female fuzzy rats (Hsd:FUZZY-fz)
Settings: 0.1% retinol alone, topical in acetone, daily Day 1-14; group average of erythema/eschar grade 0-4 (Table 2)
Excerpt: The topical retinoid all-trans-retinoic acid (ATRA) and oral retinoids such as 13-cis RA and etretinate are known to induce substantial skin irritation in humans. This irritation is a direct result of activation of the RAR nuclear receptors. Analysis of retinoid topical irritation is also a highly reproducable method of determining in vivo retinoid potency. The female fuzzy rats provide a convenient animal model of topical irritation, since retinoid-induced skin flaking and abrasion can be readily scored by eye, while their larger size than those of mice also allows multiple sampling of serum for clinical analyses. Topical application of P450RAI inhibitors should cause an increase in the endogenous levels of ATRA that would result in ATRA-induced irritation in skin of hairless mice. In these tests female fuzzy rats ((Hsd:FUZZY-fz), 6-7 weeks old, were obtained from Harlan Sprague-Dawley (Indianapolis, Ind.). The animals were about 8-9 weeks old at the start of the experiments. Food (Purina Rodent Chow 5001) and water purified by reverse osmosis were provided ad libitum. The rats were housed individually throughout the dosing period. Test chemicals were dissolved in acetone (vehicle) for application to the backs of the rats. Two days prior to actual administration of the test compounds, rats were handled daily and dosed with vehicle at a volume of 0.5 ml/kg. Starting on Day 1 thought Day 14 (dosing period), animals were dosed with the vehicle or compound(s) according to their group assignment. The rats in the tests were observed daily and the dorsal skin was graded for the degree of erythema/eschar and overall appearance. The scoring was in accordance with Table 2, below. [table] Daily group average was calculated by dividing the sum of the individual grade by the number of animals in each treatment group. The attached data in Table 3 indicates the retinoid-mimetic effects of some P450RAI inhibitors on the skin of fuzzy rats in the above described tests and in accordance with the above-indicated scoring.

Question: With CC1=C(/C=C/C(C)=C/C=C/C(C)=C/CO)C(C)(C)CCC1 [retinol, reference compound] as the compound, how does the “Irritation Score on day 14” value read?
Answer: Its value is 1.

— patent US7351737B2, “4-[(8-substituted)-6-chromanoyl]-and 4-[8-substituted)-chroman-6-YL-ethynyl]-benzoic and phenylacetic acids, their esters and salts having cytochrome P450RAI inhibitory activity” (Allergan, Inc., priority 2002, dated 2008)
